18 compounds from article PMC6522510 (Nature Communications, 2019) can be followed below.

Test systems include CHRF288-11; ML-2; U937; CMK; M07e; MOLM-13; MV4-11; CMS.
What all share (design): species or system AML cell lines (8); Primary HTS, single concentration about 10 uM, Cell Titer Glo viability; log10 luminescence, per cent inhibition relative to cycloheximide control
Common to all, as to conditions: 72 h, relative to cycloheximide control, log10 luminescence; inhibitor

Molecules are shown by their SMILES.

For `CC(=O)NCc1cccc(C#Cc2cncnc2Nc2ccc(OCc3cccc(F)c3)c(Cl)c2)c1` [SJ000573245-1, U17810/92/1], the CHRF288-11 %inh in the test with CHRF288-11 is -2.703%. Further, the ML-2 %inh in the test on ML-2 was found to be 1.051%. Further, the U937 %inh in the test with U937 came to 4.477%. The CMK %inh in the test with CMK came out at 4.208%. Further, the M07e %inh in the test with M07e is 1.428%. For the same compound, the MOLM-13 %inh with MOLM-13 was 4.772%. In the test with MV4-11, the MV4-11 %inh is listed as 1.627%. Also, in the test with CMS, the CMS %inh is listed as 2.982%.

`CN1CCC(n2cnc(-c3ccc(F)cc3)c2-c2ccnc(NCCO)n2)CC1` [SJ000573246-1, TG19207-178A1]: the CHRF288-11 %inh with CHRF288-11 is given as 13.91%. Besides, the ML-2 %inh in the test with ML-2 stood at 6.134%. Also, the U937 %inh in the test on U937 came to 1.73%. For the same compound, the CMK %inh in the test on CMK was 15.99%. In addition, the M07e %inh with M07e came to 3.039%. The MOLM-13 %inh in the test with MOLM-13 worked out at 21.36%. In addition, the MV4-11 %inh in the test with MV4-11 turned out to be 13.81%. Also, the CMS %inh in the test with CMS is listed as -0.04607%.

With `c1ccc(Cc2nc3ccc(Nc4ncnc5ccccc45)cc3[nH]2)cc1` [SJ000573247-1, C3072/110/1], the CHRF288-11 %inh with CHRF288-11 stood at 3.355%. Moreover, the ML-2 %inh in the test with ML-2 was 2.215%. The U937 %inh in the test with U937 was -1.321%. For the same compound, the CMK %inh with CMK is reported as -4.013%. The M07e %inh with M07e is reported as 0.8889%. Besides, the MOLM-13 %inh in the test on MOLM-13 is 6.702%. The MV4-11 %inh with MV4-11 stood at 1.262%. The CMS %inh in the test with CMS is given as 0.8443%.

Consider `COc1ccc2cc(-c3c(-c4ccncc4)nc(-c4ccc([S+](C)[O-])cc4C)n3C)ccc2c1` (stereo not drawn) [SJ000573248-1, NJ44157-082A1], for which the CHRF288-11 %inh in the test on CHRF288-11 came to 5.983%. Also, the ML-2 %inh in the test on ML-2 was 0.217%. Moreover, in the test on U937, the U937 %inh stood at 1.089%. Also, in the test on CMK, the CMK %inh amounted to 1.35%. In the test on M07e, the M07e %inh is reported as 7.477%. The MOLM-13 %inh in the test on MOLM-13 worked out at 2.934%. Also, the MV4-11 %inh with MV4-11 was 7.703%. Moreover, the CMS %inh with CMS is 2.672%.

With `CNC(=O)c1cncc(/C=C/c2c(C)cccc2C)c1` [SJ000573249-1, U12068/55/2], in the test with CHRF288-11, the CHRF288-11 %inh is listed as 2.946%. Moreover, the ML-2 %inh in the test on ML-2 stood at 1.303%. In addition, in the test on U937, the U937 %inh is reported as -0.6106%. Moreover, the CMK %inh in the test with CMK is on record as 2.958%. Moreover, in the test with M07e, the M07e %inh came out at 6.499%. Further, the MOLM-13 %inh in the test with MOLM-13 is 0.7031%. In addition, in the test with MV4-11, the MV4-11 %inh turned out to be 1.251%. Further, in the test on CMS, the CMS %inh turned out to be 2.842%.

Take `FC(F)(F)c1cccc(Nc2nccc(-c3cnn4nc(-c5ccccc5)ccc34)n2)c1` [SJ000573250-1, U17838/151/2]: the CHRF288-11 %inh in the test with CHRF288-11 is listed as 8.085%. In the test with ML-2, the ML-2 %inh is on record as -0.4365%. Also, the U937 %inh in the test with U937 is -0.9941%. In addition, in the test on CMK, the CMK %inh is given as 0.1975%. Also, in the test on M07e, the M07e %inh worked out at 2.996%. Moreover, in the test with MOLM-13, the MOLM-13 %inh is 2.078%. Besides, in the test with MV4-11, the MV4-11 %inh is 3.227%. Besides, the CMS %inh with CMS is on record as 3.035%.

`NC(=O)c1ccc(-c2nc(-c3ccccn3)c(-c3ccc4c(c3)OCO4)[nH]2)cc1` [SJ000573251-1, TH48888-160A1]: in the test with CHRF288-11, the CHRF288-11 %inh is recorded as 1.837%. Also, in the test on ML-2, the ML-2 %inh was found to be 2.652%. Also, the U937 %inh in the test with U937 is -1.697%. The CMK %inh in the test on CMK was found to be 9.718%. The M07e %inh in the test on M07e is on record as 3.715%. Besides, the MOLM-13 %inh in the test with MOLM-13 was 3.34%. Besides, the MV4-11 %inh in the test on MV4-11 is 2.981%. The CMS %inh in the test on CMS is recorded as 1.606%.

`Fc1cccc(COc2ccc(Nc3ncnc4cc(-c5ccc[nH]5)sc34)cc2Cl)c1` [SJ000573252-1, U16950/26/1]: the CHRF288-11 %inh in the test with CHRF288-11 is 1.14%. Moreover, the ML-2 %inh in the test with ML-2 was determined as 17.93%. For the same compound, in the test on U937, the U937 %inh was 11.09%. For the same compound, the CMK %inh in the test with CMK stood at 115.2%. In addition, the M07e %inh in the test on M07e is 5.221%. Moreover, the MOLM-13 %inh in the test with MOLM-13 is listed as 14.24%. The MV4-11 %inh in the test on MV4-11 is given as 9.963%. Further, the CMS %inh in the test with CMS is recorded as 15.37%.

In the case of `COc1ccccc1-c1cc(/C=C2\C(=O)Nc3ncc(Br)cc32)cc(Br)c1O` [SJ000573253-1, U16719/161/1], the CHRF288-11 %inh in the test with CHRF288-11 is -3.427%. Besides, the ML-2 %inh with ML-2 is 1.918%. Further, the U937 %inh in the test on U937 is on record as -3.171%. For the same compound, the CMK %inh in the test with CMK was 2.536%. Also, the M07e %inh with M07e turned out to be 2.858%. The MOLM-13 %inh with MOLM-13 was -1.113%. In addition, the MV4-11 %inh in the test on MV4-11 is given as 0.2955%. In the test with CMS, the CMS %inh was -1.153%.

As to `OCc1ccc(-c2nc(-c3ccc4c(c3)OCO4)c(-c3ccccn3)[nH]2)cc1` [SJ000573254-1, FH98924-116A1], the CHRF288-11 %inh with CHRF288-11 is reported as -3.015%. In addition, the ML-2 %inh in the test on ML-2 came out at 2.365%. Also, in the test on U937, the U937 %inh was -3.528%. Moreover, the CMK %inh in the test with CMK is listed as -1.373%. For the same compound, the M07e %inh with M07e worked out at 0.7981%. Further, the MOLM-13 %inh in the test with MOLM-13 is 0.3005%. Also, in the test with MV4-11, the MV4-11 %inh was -0.8385%. For the same compound, the CMS %inh in the test with CMS is 0.5352%.

As to `COc1cc2ncn(-c3cc(OCc4cccs4)c(C(N)=O)s3)c2cc1OC` [SJ000573255-1, U21051/7/15], the CHRF288-11 %inh with CHRF288-11 came out at 6.199%. Further, the ML-2 %inh in the test with ML-2 was 24.59%. In addition, in the test on U937, the U937 %inh stood at 17.16%. Moreover, the CMK %inh with CMK is reported as -3.278%. Besides, the M07e %inh in the test on M07e was 12.77%. Also, in the test on MOLM-13, the MOLM-13 %inh was 63.69%. The MV4-11 %inh in the test on MV4-11 came out at 6.732%. Further, the CMS %inh in the test on CMS was found to be 9.159%.

As for `CC1=C(C(=O)Nc2ccc3[nH]ncc3c2)C(c2ccc(Cl)c(Cl)c2)CC(=O)N1` (stereo not drawn) [SJ000573256-1, SD205340-087A3], in the test with CHRF288-11, the CHRF288-11 %inh is given as 13.93%. Further, the ML-2 %inh in the test on ML-2 is 6.91%. In addition, the U937 %inh with U937 was found to be 2.616%. The CMK %inh in the test with CMK is 25.41%. The M07e %inh in the test on M07e is reported as 6.129%. The MOLM-13 %inh with MOLM-13 worked out at 0.01758%. Also, the MV4-11 %inh in the test on MV4-11 is 13.75%. Moreover, the CMS %inh with CMS is listed as 3.826%.

In the case of `C[C@@H](Oc1cc(-n2cnc3ccc(OCC4CCN(C)CC4)cc32)sc1C(N)=O)c1ccccc1C(F)(F)F` [SJ000573257-1, U20395/196/2], the CHRF288-11 %inh with CHRF288-11 is 130.5%. For the same compound, in the test with ML-2, the ML-2 %inh is 59.84%. Besides, in the test with U937, the U937 %inh amounted to 73.66%. Besides, the CMK %inh in the test on CMK is 97.6%. In addition, the M07e %inh in the test on M07e amounted to 98.02%. For the same compound, in the test on MOLM-13, the MOLM-13 %inh turned out to be 108.4%. In addition, in the test with MV4-11, the MV4-11 %inh stood at 86.97%. The CMS %inh in the test on CMS was determined as 75.53%.

For the compound `CNC(=O)c1cncc(/C=C/c2c(Cl)cccc2Cl)c1` [SJ000573258-1, U12068/57/2], in the test with CHRF288-11, the CHRF288-11 %inh is -0.5271%. Moreover, the ML-2 %inh with ML-2 is -0.3801%. Moreover, the U937 %inh in the test on U937 was 3.831%. The CMK %inh in the test on CMK worked out at 4.903%. Moreover, in the test with M07e, the M07e %inh amounted to 7.169%. The MOLM-13 %inh in the test with MOLM-13 amounted to 2.751%. Also, the MV4-11 %inh with MV4-11 is 3.453%. The CMS %inh with CMS was found to be 3.911%.

`COc1ccc(Nc2ncc(-c3ccccc3)o2)cc1OC` [SJ000573259-1, U14961/58/1]: the CHRF288-11 %inh with CHRF288-11 was -4.817%. The ML-2 %inh in the test on ML-2 was 4.567%. Besides, in the test on U937, the U937 %inh is listed as -1.171%. Moreover, the CMK %inh in the test with CMK worked out at 5.775%. In addition, the M07e %inh with M07e stood at 6.596%. Besides, in the test with MOLM-13, the MOLM-13 %inh worked out at 83.48%. In the test with MV4-11, the MV4-11 %inh is listed as 88.15%. Also, the CMS %inh in the test on CMS was found to be 0.9883%.

With `Fc1ccc(-c2nn3ccccc3c2-c2ccncc2)cc1` [SJ000573260-1, U11781/145/5], the CHRF288-11 %inh in the test with CHRF288-11 is -2.859%. In addition, the ML-2 %inh with ML-2 is given as -1.762%. For the same compound, the U937 %inh in the test on U937 turned out to be 4.651%. For the same compound, the CMK %inh in the test on CMK is 8.765%. In the test on M07e, the M07e %inh is 0.2861%. The MOLM-13 %inh in the test on MOLM-13 was found to be 0.1728%. Besides, the MV4-11 %inh with MV4-11 turned out to be 4.558%. Besides, the CMS %inh with CMS is given as -2.539%.

With `CCn1c(-c2nonc2N)nc2c(N3CCCC3)nccc21` [SJ000573261-1, DW100508-128A1], the CHRF288-11 %inh in the test on CHRF288-11 was 2.981%. In the test on ML-2, the ML-2 %inh is 3.187%. Moreover, the U937 %inh in the test on U937 was -1.967%. In the test with CMK, the CMK %inh is 3.861%. For the same compound, the M07e %inh in the test with M07e turned out to be 5.656%. Moreover, the MOLM-13 %inh in the test with MOLM-13 is on record as 1.048%. The MV4-11 %inh in the test on MV4-11 worked out at 6.029%. Moreover, the CMS %inh in the test with CMS came out at 5.321%.

Turning to `Fc1cccc(COc2ccc(Nc3ncncc3C#Cc3ccccc3)cc2Cl)c1` [SJ000573262-1, U15872/50/1], the CHRF288-11 %inh in the test on CHRF288-11 was -1.921%. Moreover, in the test on ML-2, the ML-2 %inh was 1.8%. For the same compound, the U937 %inh with U937 is on record as 1.725%. For the same compound, the CMK %inh in the test with CMK is recorded as -0.522%. Further, the M07e %inh with M07e is -0.005299%. For the same compound, the MOLM-13 %inh with MOLM-13 is given as -0.1156%. In addition, the MV4-11 %inh in the test on MV4-11 was determined as 1.812%. The CMS %inh in the test on CMS is reported as -2.059%.
